Assay [1] concerns tumor cells cultured from primary ovarian cancer specimens. The experiment in a line: in vitro chemoresponse assay (ChemoFx), AUC7 drug response score. The assay is classed as cell-based, human. The note with it: for share of tumors exhibiting in vitro resistance: AUC7 score >75th rank, patients of the observational study; for AUC (first seven doses) of the 25% of historical dose response curves with the highest scores (resistant cut-off) / AUC (first 7 doses) of the 25% of historical dose response curves with the lowest scores (sensitive cut-off): sum of survival fractions over doses 1-7, more than 2,000 specimens; for AUC (first 7 doses) of the 25% of historical dose response curves with the lowest scores (sensitive cut-off): smaller score = more sensitive. On the procedure:
Briefly, in certain embodiments, cohesive multicellular particulates (explants) are prepared from a patient's tissue sample (e.g., a biopsy sample or surgical specimen) using mechanical fragmentation. This mechanical fragmentation of the explant may take place in a medium substantially free of enzymes that are capable of digesting the explant. Some enzymatic digestion may take place in certain embodiments. Generally, the tissue sample is systematically minced using two sterile scalpels in a scissor-like motion, or mechanically equivalent manual or automated opposing incisor blades. This cross-cutting motion creates smooth cut edges on the resulting tissue multicellular particulates. The tumor particulates each measure from about 0.25 to about 1.5 mm^3, for example, about 1 mm^3.
After the tissue sample has been minced, the particles are plated in culture flasks. The number of explants plated per flask may vary, for example, between one and 25, such as from 5 to 20 explants per flask. For example, about 9 explants may be plated per T-25 flask, and 20 particulates may be plated per T-75 flask. For purposes of illustration, the explants may be evenly distributed across the bottom surface of the flask, followed by initial inversion for about 10-15 minutes. The flask may then be placed in a non-inverted position in a 37° C. CO2 incubator for about […], Flasks are checked regularly for growth and contamination. Over a period of a few weeks a cell monolayer will form. Further, it is believed (without any intention of being bound by the theory) that tumor cells grow out from the multicellular explant prior to stromal cells. Thus, by initially maintaining the tissue cells within the explant and removing the explant at a predetermined time (e.g., at about 10 to about 50 percent confluency, or at about 15 to about 25 percent confluency), growth of the tumor cells (as opposed to stromal cells) into a monolayer is facilitated. In certain embodiments, the tumor explant may be agitated to substantially release tumor cells from the tumor explant, and the released cells cultured to produce a cell culture monolayer. The use of this procedure to form a cell culture monolayer helps maximize the growth of representative tumor cells from the tissue sample.
A panel of active agents may then be screened using the cultured cells. Generally, the agents are tested against the cultured cells using plates such as microtiter plates. For the chemosensitivity assay, a reproducible number of cells is delivered to a plurality of wells on one or more plates, preferably with an even distribution of cells throughout the wells. For example, cell suspensions are generally formed from the monolayer cells before substantial phenotypic drift of the tumor cell population occurs. The cell suspensions may be, without limitation, about 4,000 to 12,000 cells/ml, or may be about 4,000 to 9,000 cells/ml, or about 7,000 to 9,000 cells/ml. The individual wells for chemoresponse testing are inoculated with the cell suspension, with each well or “segregated site” containing about 10^2 to 10^4 cells. The cells are generally cultured in the segregated sites for about 4 to about 30 hours prior to contact with an agent.
The efficacy of each agent in the panel is determined against the patient's cultured cells, by determining the viability of the cells (e.g., number of viable cells). For example, at predetermined intervals before, simultaneously with, or beginning immediately after, contact with each agent or combination, an automated cell imaging system may take images of the cells using one or more of visible light, UV light and fluorescent light. Alternatively, the cells may be imaged after about 25 to about 200 hours of contact with each treatment. The cells may be imaged once or multiple times, prior to or during contact with each treatment. Of course, any method for determining the viability of the cells may be used to assess the efficacy of each treatment in vitro. […]

The test system of assay [2] is FIGO stage III-IV ovarian, fallopian and peritoneal cancer. The experiment in a line: observational study: progression-free survival by in vitro response, patients treated with carboplatin + paclitaxel after cytoreductive surgery. The assay is classed as in vivo, human. The note with it: patients treated with C+P; for hazard ratio of disease progression, in vitro resistant vs S+I: univariate. From the text: Women with FIGO stage III-IV ovarian, fallopian and peritoneal cancer were enrolled in an observational study and received in vitro chemoresponse testing between 2006 and 2010. Two hundred seventy-six (276) patients treated with carboplatin (C)+paclitaxel (P) following cytoreductive surgery were included in this analysis. Tumor response to C or P was classified into one of three categories according to assay response score: sensitive (S), intermediately sensitive (I), and resistant (R). Patient clinical information and progression-free survival (PFS) were retrospectively collected. Association of assay drug response with […] was analyzed using Kaplan-Meier procedure and Cox regression model.

[3] abbreviates: grouped by in vitro response to the named drug.

Experimental findings from patent US20140072999A1, “METHODS OF SIMULATING CHEMOTHERAPY FOR A PATIENT” (Precision Therapeutics, Inc., priority 2008, published 2014) are described below.

Molecules are shown by their SMILES.

In the case of `N.N.O=C([O-])C1(C(=O)[O-])CCC1.[Pt+2]` [carboplatin, Carboplatin], in assay [1], the “share of tumors exhibiting in vitro resistance” value turned out to be 19%, the “AUC (first seven doses) of the 25% of historical dose response curves with the highest scores (resistant cut-off)” value is recorded as at least 5.5 and the “AUC (first 7 doses) of the 25% of historical dose response curves with the lowest scores (sensitive cut-off)” value is recorded as at most 4.3. Moreover, the “hazard ratio of disease progression, in vitro resistant vs S+I, multivariate analysis” value in assay [2] (controlled for clinical covariates) is reported as 1.71. In assay [2] (setting [3]), the “median PFS, tumors intermediately sensitive (I) in vitro” value was found to be 16.6 months; the “median PFS, tumors resistant (R) in vitro” value stood at 11.8 months; the “median PFS, tumors sensitive (S) in vitro” value stood at 17.4 months. In assay [2], the “hazard ratio of disease progression, in vitro resistant vs S+I” value is on record as 1.87.

As for `CC(=O)O[C@H]1C(=O)[C@@]2(C)[C@H]([C@H](OC(=O)c3ccccc3)[C@]3(O)C[C@H](OC(=O)[C@H](O)[C@@H](NC(=O)c4ccccc4)c4ccccc4)C(C)=C1C3(C)C)[C@]1(OC(C)=O)CO[C@@H]1C[C@@H]2O` [paclitaxel, Paclitaxel], in assay [1], the “share of tumors exhibiting in vitro resistance” value was 22%, the “AUC (first seven doses) of the 25% of historical dose response curves with the highest scores (resistant cut-off)” value is given as at least 6.0 and the “AUC (first 7 doses) of the 25% of historical dose response curves with the lowest scores (sensitive cut-off)” value is on record as at most 5.0. For the same compound, the “hazard ratio of disease progression, in vitro resistant vs S+I” value in assay [2] came to 1.43.
